Reference: patent publication US20190292155A1, “THERAPEUTIC INHIBITORY COMPOUNDS” (LifeSci Pharmaceuticals, Inc., priority 2016, published 2019)

What was measured:
[1] = tested on: alternative pathway (AP) hemolytic activity; assay: AP hemolysis inhibition assay; type: cell-based; conditions: Normal Human Serum, chicken or rabbit erythrocytes
Procedure: The ability of the compounds disclosed herein to inhibit alternative pathway (AP) hemolytic activity was determined. […] In 100 μL reaction system, 1300 to […] final concentration of Normal Human Serum (CompTech) was incubated with compound for 15 min at 37° C. Then 2×10^6 cells/well of chicken or rabbit erythrocytes in assay buffer were added and incubated for an additional 60 min at 37° C. Positive control (100% lysis) consists of serum and RBC, and negative control (0% lysis) consists of assay buffer and RBC only. Samples were centrifuged at 2000 g for 5 min, and supernatants collected. […] Percentage lysis in each sample is calculated relative to positive control (100% lysis).

[2] = molecular target: T1, human complement factor D (Homo sapiens, UniProt P00746); assay: In vitro enzyme inhibition of human complement factor D (Z-Lys-SBzl/DTNB, A405); type: biochemical; conditions: biochemical assay, substrate Z-Lys-SBzl; read-out: CFD IC50
T1 construct: purchased R&D Systems 1824-SE
T1 sequence (P00746 26-253): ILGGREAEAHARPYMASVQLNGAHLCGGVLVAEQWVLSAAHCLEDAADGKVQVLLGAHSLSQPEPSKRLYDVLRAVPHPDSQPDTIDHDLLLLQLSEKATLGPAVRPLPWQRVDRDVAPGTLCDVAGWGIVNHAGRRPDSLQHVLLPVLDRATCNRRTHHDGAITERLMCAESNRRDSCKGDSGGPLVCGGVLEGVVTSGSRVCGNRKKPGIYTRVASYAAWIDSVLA
Outline: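 Buffer 50 mM Tris/HCl pH 7.5, 1 M NaCl, 0.5% final DMSO; compounds pre-incubated with enzyme 5 min at room temperature, then Z-Lys-SBzl with DTNB added (each diluted to 200 μM before addition).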

IC50 [2]	SMILES	EC50 [1]
100 to 1000 nM	CC(C)N(CC(=O)NCc1cccc(Cl)c1F)C(=O)Nc1cn(C(N)=O)c2ccccc12 [Example 50, 3-(3-(2-((3-chloro-2-fluorobenzyl)amino)-2-oxoethyl)-3-isopropylureido)-1H-indole-1-carboxamide]	1000 to 10000 nM
100 to 1000 nM	NC(=O)c1nc(NC(=O)N(CC(=O)NCc2cccc(Cl)c2F)C2CC2)c2ccccn12 [Example 53, 1-(3-(2-((3-chloro-2-fluorobenzyl)amino)-2-oxoethyl)-3-cyclopropylureido)imidazo[1,5-a]pyridine-3-carboxamide]	100 to 1000 nM

SMILES	IC50 [2]	EC50 [1]
CC(=O)c1nn(CC(=O)N(CC(=O)NCc2cccc(Cl)c2F)C2CC2)c2ccccc12 [Example 47, 2-(3-acetyl-1H-indazol-1-yl)-N-(2-((3-chloro-2-fluorobenzyl)amino)-2-oxoethyl)-N-cyclopropylacetamide]	< 100 nM	100 to 1000 nM
